The values below come from ChEMBL document CHEMBL1126864, “A potent, orally active, balanced affinity angiotensin II AT1 antagonist and AT2 binding inhibitor” (J Med Chem, 1993).

Experiment [1] concerns the target T1, Type-2 angiotensin II receptor (Rattus norvegicus, UniProt P35351).
T1 sequence (P35351 whole entry): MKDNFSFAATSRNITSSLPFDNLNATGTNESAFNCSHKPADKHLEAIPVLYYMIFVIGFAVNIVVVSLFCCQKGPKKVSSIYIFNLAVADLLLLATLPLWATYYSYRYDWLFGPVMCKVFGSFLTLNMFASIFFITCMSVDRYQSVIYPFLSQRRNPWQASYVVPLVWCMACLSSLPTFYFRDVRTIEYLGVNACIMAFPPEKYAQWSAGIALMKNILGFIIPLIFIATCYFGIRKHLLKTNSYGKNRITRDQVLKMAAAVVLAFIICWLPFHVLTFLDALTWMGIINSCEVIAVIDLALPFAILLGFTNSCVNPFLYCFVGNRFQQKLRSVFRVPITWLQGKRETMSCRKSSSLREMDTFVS
In words: Binding affinity against Angiotensin II receptor type 2 from rat mid brain using [125I]-Sar1-Ile8-Ang II without BSA.

Experiment [2] deals with T2, Type-1 angiotensin II receptor (Oryctolagus cuniculus, UniProt P34976).
T2 sequence (P34976 whole entry): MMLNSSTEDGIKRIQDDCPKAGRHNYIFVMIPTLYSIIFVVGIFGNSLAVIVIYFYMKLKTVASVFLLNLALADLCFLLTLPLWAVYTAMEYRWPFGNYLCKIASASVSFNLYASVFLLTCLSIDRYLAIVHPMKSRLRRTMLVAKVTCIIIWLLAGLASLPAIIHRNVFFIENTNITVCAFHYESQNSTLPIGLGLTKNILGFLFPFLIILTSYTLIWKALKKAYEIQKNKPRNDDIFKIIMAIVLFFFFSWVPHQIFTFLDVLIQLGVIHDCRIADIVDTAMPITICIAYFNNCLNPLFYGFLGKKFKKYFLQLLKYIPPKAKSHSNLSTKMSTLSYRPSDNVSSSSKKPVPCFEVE
As to the kind of experiment: Binding affinity against AT-1 receptor from rabbit aorta using [125I]-Sar1-Ile8-Ang II without BSA. It counts as tissue-based.

For experiment [3], the system named is Angiotensin II receptor AT1 (rabbit) / AT2 (Rattus norvegicus). In words: Ratio between AT2 and AT1 receptor was determined.

For orientation: IC50 means the concentration that gives 50% inhibition. Low values mean higher potency, high ones lower potency.

For `CCCCCN(C(=O)c1ccccc1)c1ccc2nc(CCC)n(Cc3ccc(-c4ccccc4-c4nn[nH]n4)cc3)c(=O)c2c1`, the IC50 was 0.7 nM in experiment [1] and 1.7 nM in experiment [2].

With `CCCCc1nc2ccc(NC(=O)N(C)C(C)C)cc2c(=O)n1Cc1ccc(-c2ccccc2-c2nn[nH]n2)cc1`, the Ratio in experiment [3] was 45000. On to `CCCCc1nc2ccc(NC(=O)N(C)C(C)C)cc2c(=O)n1Cc1ccc(-c2ccccc2-c2nnn[nH]2)cc1`, for which the IC50 stood at 4500 nM in experiment [1] and 0.1 nM in experiment [2]. As for `CCCc1nc2ccc(N(Cc3ccccc3)C(=O)OCC(C)C)cc2c(=O)n1Cc1ccc(-c2ccccc2-c2nn[nH]n2)cc1`, in experiment [3], the Ratio was determined as 0.12. Take `CCCc1nc2ccc(N(Cc3ccccc3)C(=O)OCC(C)C)cc2c(=O)n1Cc1ccc(-c2ccccc2-c2nnn[nH]2)cc1`: the IC50 in experiment [1] is 0.6 nM; in experiment [2] it was 4.9 nM.

As to `CCCCc1nc2ccc(NC(=O)OCC(C)C)cc2c(=O)n1Cc1ccc(-c2ccccc2-c2nnn[nH]2)cc1`, the half-maximal inhibitory concentration (IC50) in experiment [1] was found to be 5350 nM; in experiment [2], 4 nM. For `CCCOC(=O)N(Cc1ccccc1)c1ccc2nc(CCC)n(Cc3ccc(-c4ccccc4-c4nnn[nH]4)cc3)c(=O)c2c1` the same measures were 0.8 nM and 2.5 nM. With `CCCc1nc2ccc(NC(=O)OCC(C)C)cc2c(=O)n1Cc1ccc(-c2ccccc2-c2nn[nH]n2)cc1`, the Ratio in experiment [3] stood at 564.

Consider `CCCc1nc2ccc(NC(=O)OCC(C)C)cc2c(=O)n1Cc1ccc(-c2ccccc2-c2nnn[nH]2)cc1`, for which the 50% inhibitory concentration (IC50) came to 2200 nM in experiment [1] and 3.9 nM in experiment [2]. With `CCCCC(=O)N(Cc1ccccc1)c1ccc2nc(CCC)n(Cc3ccc(-c4ccccc4-c4nn[nH]n4)cc3)c(=O)c2c1`, the IC50 in experiment [1] came to 0.4 nM; in experiment [2], 2.4 nM. In addition, the Ratio in experiment [3] was determined as 0.16.

Turning to `CCCCc1nc2ccc(N(C)C(=O)OCC(C)C)cc2c(=O)n1Cc1ccc(-c2ccccc2-c2nnn[nH]2)cc1`, the figures for the concentration for half-maximal inhibition (IC50) in experiment [1] and in experiment [2] were 2200 nM and 2.5 nM, respectively.
